According to patent US6737383B1, “Herbicidal oxadiazolidines” (priority 1999, dated 2004):

Key:
[1] = system: surinam grass; test: Test B pre/postemergence surinam grass; format: in vivo, Brachiaria decumbens
In short: (§1)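 Herbicidal effect was estimated by eye on a ten-point control scale after plants spent twelve to sixteen days in a greenhouse following soil or foliar treatment. Foliar sprays targeted plants at one to four leaves; all doses were formulated in a non-phytotoxic solvent with surfactant.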

[2] = system: corn; test: Test B pre/postemergence corn; format: in vivo, Zea mays
In short: as §1

[3] = system: wheat; test: Test B pre/postemergence wheat; format: in vivo, Triticum aestivum
In short: as §1

[4] = system: velvetleaf; test: Test B pre/postemergence velvetleaf; format: in vivo, Abutilon theophrasti
In short: as §1

[5] = system: bedstraw; test: Test B pre/postemergence bedstraw; format: in vivo, Galium aparine
In short: as §1

[6] = system: cocklebur; test: Test B pre/postemergence cocklebur; format: in vivo, Xanthium strumarium
In short: as §1

[7] = system: soybean; test: Test B pre/postemergence soybean; format: in vivo, Glycine max
In short: as §1

[8] = system: sugar beet; test: Test B pre/postemergence sugar beet; format: in vivo, Beta vulgaris
In short: as §1

[9] = system: morningglory; test: Test B pre/postemergence morningglory; format: in vivo, Ipomoea hederacea
In short: as §1

[10] = system: giant foxtail; test: Test B pre/postemergence giant foxtail; format: in vivo, Setaria faberii
In short: as §1

[11] = system: crabgrass; test: Test B pre/postemergence crabgrass; format: in vivo, Digitaria sanguinalis
In short: as §1

[12] = system: wild oat; test: Test B pre/postemergence wild oat; format: in vivo, Avena fatua
In short: as §1

[13] = system: pigweed; test: Test B pre/postemergence pigweed; format: in vivo, Amaranthus retroflexus
In short: as §1

[14] = system: blackgrass; test: Test B pre/postemergence blackgrass; format: in vivo, Alopecurus myosuroides
In short: as §1

[15] = system: rape; test: Test B pre/postemergence rape; format: in vivo, Brassica napus
In short: as §1

[16] = system: purple nutsedge; test: Test B pre/postemergence purple nutsedge; format: in vivo, Cyperus rotundus
In short: as §1

[17] = Postemergence, Rate 125 g/ha, scale of 0 to 10 where 0 is no effect and 10 is complete control
[18] = Preemergence, Rate 62 g/ha, scale 0 to 10 (0 no effect, 10 complete control)
[19] = Preemergence, Rate 125 g/ha, 0 is no effect, 10 is complete control
[20] = Preemergence, Rate 250 g/ha, scale 0 to 10, 0 is no effect, 10 is complete control
[21] = Preemergence, Rate 500 g/ha, scale 0 to 10 (0 no effect, 10 complete control)
[22] = Rate 62 g/ha, Postemergence, scale of 0 to 10 where 0 is no effect and 10 is complete control
[23] = Rate 250 g/ha, Postemergence, scale 0 to 10, 0 is no effect, 10 is complete control
[24] = Rate 500 g/ha, Postemergence, scale 0 to 10

SMILES: CC(C)N(C(=O)n1oc(=O)n(C(C)c2ccccc2)c1=O)c1ccc(Cl)cc1 (centres unmarked) [Compound 133]
- B. signalgrass plant response rating [1, 17]: 0
- B. signalgrass plant response rating [1, 18]: 0
- B. signalgrass plant response rating (0 to 10 scale) [1, 19]: 5
- B. signalgrass plant response rating [1, 20]: 5
- B. signalgrass plant response rating [1, 21]: 7
- B. signalgrass plant response rating [1, 22]: 0
- Plant response rating, B. signalgrass [1, 23]: 2
- B. signalgrass plant response rating ([1]; Rate 500 g/ha, Postemergence, scale of 0 to 10 where 0 is no effect and 10 is complete control): 2
- Corn plant response rating [2, 17]: 0
- Corn plant response rating [2, 18]: 0
- Corn plant response rating (0 to 10 scale) [2, 19]: 0
- Corn plant response rating [2, 20]: 0
- Corn plant response rating [2, 21]: 0
- Corn plant response rating [2, 22]: 0
- Plant response rating, Corn [2, 23]: 0
- Corn plant response rating [2, 24]: 0
- Wheat plant response rating [3, 17]: 0
- Wheat plant response rating [3, 18]: 0
- Wheat plant response rating (0 to 10 scale) [3, 19]: 0
- Wheat plant response rating [3, 20]: 0
- Wheat plant response rating [3, 21]: 0
- Wheat plant response rating [3, 22]: 0
- Plant response rating, Wheat [3, 23]: 0
- Wheat plant response rating [3, 24]: 2
- Velvetleaf plant response rating [4, 17]: 0
- Velvetleaf plant response rating [4, 18]: 0
- Velvetleaf plant response rating (0 to 10 scale) [4, 19]: 0
- Velvetleaf plant response rating [4, 20]: 2
- Velvetleaf plant response rating [4, 21]: 2
- Velvetleaf plant response rating [4, 22]: 0
- Plant response rating, Velvetleaf [4, 23]: 2
- Velvetleaf plant response rating [4, 24]: 5
- Bedstraw plant response rating [5, 17]: 4
- Bedstraw plant response rating [5, 18]: 0
- Bedstraw plant response rating (0 to 10 scale) [5, 19]: 0
- Bedstraw plant response rating [5, 20]: 0
- Bedstraw plant response rating [5, 21]: 0
- Bedstraw plant response rating [5, 22]: 0
- Plant response rating, Bedstraw [5, 23]: 7
- Bedstraw plant response rating ([5]; Rate 500 g/ha, Postemergence, scale 0 to 10, 0 no effect, 10 complete control): 7
- Cocklebur plant response rating [6, 17]: 2
- Cocklebur plant response rating [6, 18]: 0
- Cocklebur plant response rating (0 to 10 scale) [6, 19]: 0
- Cocklebur plant response rating [6, 20]: 0
- Cocklebur plant response rating [6, 21]: 2
- Cocklebur plant response rating [6, 22]: 2
- Plant response rating, Cocklebur [6, 23]: 2
- Cocklebur plant response rating [6, 24]: 3
- Soybean plant response rating [7, 17]: 3
- Soybean plant response rating [7, 18]: 0
- Soybean plant response rating (0 to 10 scale) [7, 19]: 0
- Soybean plant response rating [7, 20]: 0
- Soybean plant response rating [7, 21]: 0
- Soybean plant response rating [7, 22]: 1
- Plant response rating, Soybean [7, 23]: 3
- Soybean plant response rating [7, 24]: 3
- Sugarbeets plant response rating [8, 17]: 0
- Sugarbeets plant response rating [8, 18]: 0
- Sugarbeets plant response rating (0 to 10 scale) [8, 19]: 2
- Sugarbeets plant response rating [8, 20]: 3
- Sugarbeets plant response rating [8, 21]: 5
- Sugarbeets plant response rating [8, 22]: 0
- Plant response rating, Sugarbeets [8, 23]: 0
- Sugarbeets plant response rating [8, 24]: 2
- Morningglory plant response rating [9, 17]: 3
- Morningglory plant response rating [9, 18]: 0
- Morningglory plant response rating (0 to 10 scale) [9, 19]: 0
- Morningglory plant response rating [9, 20]: 0
- Morningglory plant response rating [9, 21]: 0
- Morningglory plant response rating [9, 22]: 2
- Plant response rating, Morningglory [9, 23]: 4
- Morningglory plant response rating [9, 24]: 8
- Giant foxtail plant response rating [10, 17]: 2
- Giant foxtail plant response rating [10, 18]: 3
- Giant foxtail plant response rating (0 to 10 scale) [10, 19]: 7
- Giant foxtail plant response rating [10, 20]: 9
- Giant foxtail plant response rating [10, 21]: 10
- Giant foxtail plant response rating [10, 22]: 0
- Plant response rating, Giant foxtail [10, 23]: 3
- Giant foxtail plant response rating [10, 24]: 4
- Crabgrass plant response rating [11, 17]: 2
- Crabgrass plant response rating [11, 18]: 1
- Crabgrass plant response rating (0 to 10 scale) [11, 19]: 3
- Crabgrass plant response rating [11, 20]: 5
- Crabgrass plant response rating [11, 21]: 5
- Crabgrass plant response rating [11, 22]: 0
- Plant response rating, Crabgrass [11, 23]: 4
- Crabgrass plant response rating [11, 24]: 4
- Wild oats plant response rating [12, 17]: 0
- Wild oats plant response rating [12, 18]: 0
- Wild oats plant response rating (0 to 10 scale) [12, 19]: 2
- Wild oats plant response rating [12, 20]: 2
- Wild oats plant response rating [12, 21]: 4
- Wild oats plant response rating [12, 22]: 0
- Plant response rating, Wild oats [12, 23]: 0
- Wild oats plant response rating [12, 24]: 0
- Redroot pigweed plant response rating [13, 17]: 0
- Redroot pigweed plant response rating [13, 18]: 0
- Redroot pigweed plant response rating (0 to 10 scale) [13, 19]: 0
- Redroot pigweed plant response rating [13, 20]: 0
- Redroot pigweed plant response rating [13, 21]: 3
- Redroot pigweed plant response rating [13, 22]: 0
- Plant response rating, Redroot pigweed [13, 23]: 0
- Redroot pigweed plant response rating [13, 24]: 2
- Blackgrass plant response rating [14, 17]: 2
- Blackgrass plant response rating [14, 18]: 3
- Blackgrass plant response rating (0 to 10 scale) [14, 19]: 3
- Blackgrass plant response rating [14, 20]: 3
- Blackgrass plant response rating [14, 21]: 5
- Blackgrass plant response rating [14, 22]: 0
- Plant response rating, Blackgrass [14, 23]: 2
- Blackgrass plant response rating [14, 24]: 4
- Rape plant response rating [15, 17]: 0
- Rape plant response rating [15, 18]: 0
- Rape plant response rating (0 to 10 scale) [15, 19]: 0
- Rape plant response rating [15, 20]: 0
- Rape plant response rating [15, 21]: 2
- Rape plant response rating [15, 22]: 0
- Plant response rating, Rape [15, 23]: 0
- Rape plant response rating [15, 24]: 0
- Nutsedge plant response rating [16, 17]: 0
- Nutsedge plant response rating [16, 18]: 0
- Nutsedge plant response rating (0 to 10 scale) [16, 19]: 0
- Nutsedge plant response rating [16, 20]: 0
- Nutsedge plant response rating [16, 21]: 0
- Nutsedge plant response rating [16, 22]: 0
- Plant response rating, Nutsedge [16, 23]: 0
- Nutsedge plant response rating [16, 24]: 0
